What was measured:
IGROV1 (Ovarian cancer) = test: NCI-60 screen (SRB, 48 h); details: Homo sapiens
RPMI-8226 (Leukemia) = test: NCI-60 screen (SRB, 48 h); details: Homo sapiens
NSC lung cancer subpanel = test: NCI-60 screen, subpanel; details: Homo sapiens
SK-MEL-2 (Melanoma) = test: NCI-60 screen (SRB, 48 h); details: Homo sapiens
SK-OV-3 (Ovarian cancer) = test: NCI-60 screen (SRB, 48 h); details: Homo sapiens
EKVX (NSC lung cancer) = test: NCI-60 screen (SRB, 48 h); details: Homo sapiens
K-562 (Leukemia) = test: NCI-60 screen (SRB, 48 h); details: Homo sapiens
T-47D (Breast cancer) = test: NCI-60 screen (SRB, 48 h); details: Homo sapiens, T47D
[1] = tested on: NCI-H522 (NSC lung cancer); test: NCI-60 screen (SRB, 48 h); details: Homo sapiens
786-0 (Renal cancer) = test: NCI-60 screen (SRB, 48 h); details: Homo sapiens
UACC-62 (Melanoma) = test: NCI-60 screen (SRB, 48 h); details: Homo sapiens
PC-3 (Prostate cancer) = test: NCI-60 screen (SRB, 48 h); details: Homo sapiens
[2] = tested on: A2780 (ovarian carcinoma); test: SRB cytotoxicity assay, 72 h; assay type: cell-based, human; details: Homo sapiens; A2780, 72 h, cut-off 30 µM; read-out: EC50
Outline: (§1)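 EC50 values reflect percent surviving cells versus untreated controls, read at 570 nm after SRB staining of TCA-fixed monolayers. Dosing spanned 0–30 µM over 72 h.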

[3] = tested on: A375 (malignant melanoma); test: SRB cytotoxicity assay, 72 h; assay type: cell-based, human; details: Homo sapiens, A-375, 72 h, A375, 72 h, cut-off 30 µM; read-out: EC50
Outline: as §1

[4] = tested on: HT29 (colorectal carcinoma); test: SRB cytotoxicity assay, 72 h; assay type: cell-based, human; details: Homo sapiens, HT-29; HT29, 72 h, cut-off 30 µM; read-out: EC50
Outline: as §1

[5] = tested on: FaDu (hypopharyngeal carcinoma); test: SRB cytotoxicity assay, 72 h; assay type: cell-based, human; details: Homo sapiens, cut-off 30 µM, read-out: EC50
Outline: as §1

KM12 (Colon cancer) = test: NCI-60 screen (SRB, 48 h); details: Homo sapiens
Renal Cancer subpanel = test: NCI-60 screen, subpanel; details: Homo sapiens
CAKI-1 (Renal cancer) = test: NCI-60 screen (SRB, 48 h); details: Homo sapiens
RXF 393 (Renal cancer) = test: NCI-60 screen (SRB, 48 h); details: Homo sapiens
Prostate cancer subpanel = test: NCI-60 screen, subpanel; details: Homo sapiens
UO-31 (Renal cancer) = test: NCI-60 screen (SRB, 48 h); details: Homo sapiens
[6] = tested on: A549/ATCC (NSC lung cancer); test: NCI-60 screen (SRB, 48 h); details: Homo sapiens
CCRF-CEM (Leukemia) = test: NCI-60 screen (SRB, 48 h); details: Homo sapiens

Compound `C=C(C)C1CCC2(CO)CCC3(C)C(CCC4C5(C)CCCNC(C)(C)C5CCC43C)C12` (centres unmarked) [Compound 1, Azepanobetulin] has a GI50 (IGROV1 (Ovarian cancer); IGROV-1) of 1.65 µM, an IC (TGI) (IGROV1 (Ovarian cancer); IGROV-1, 48 h, read-out: TGI) of 3.26 µM and a CC50 (IGROV1 (Ovarian cancer); IGROV-1, read-out: LC50) of 6.44 µM. For the same compound, the GI50 (RPMI-8226 (Leukemia); RPMI-8226) was 1.94 µM, the IC (TGI) (RPMI-8226 (Leukemia); RPMI-8226, 48 h, read-out: TGI) was 4.51 µM and the CC50 (RPMI-8226 (Leukemia); RPMI-8226, read-out: LC50) was over 100 µM. It also gave an IC (TGI) (NSC lung cancer subpanel; 48 h, read-out: TGI MG_MID) of 3.35 µM, a GI50 (NSC lung cancer subpanel; read-out: GI50 MG_MID) of 1.71 µM and a CC50 (NSC lung cancer subpanel; read-out: LC50 MG_MID) of 6.49 µM. The GI50 (SK-MEL-2 (Melanoma); SK-MEL-2) was 1.84 µM, the IC (TGI) (SK-MEL-2 (Melanoma); SK-MEL-2, 48 h, read-out: TGI) was 3.75 µM and the GI50 (SK-OV-3 (Ovarian cancer); SK-OV-3) was 1.83 µM. It also gave an IC (TGI) (SK-OV-3 (Ovarian cancer); SK-OV-3, 48 h, read-out: TGI) of 3.49 µM, a CC50 (SK-OV-3 (Ovarian cancer); SK-OV-3, read-out: LC50) of 6.64 µM and a GI50 (EKVX (NSC lung cancer)) of 1.55 µM. For the same compound, the IC (TGI) (EKVX (NSC lung cancer); 48 h, read-out: TGI) was 3.03 µM, the CC50 (EKVX (NSC lung cancer); read-out: LC50) was 5.92 µM and the GI50 (K-562 (Leukemia); K562) was 1.08 µM. For the same compound, the IC (TGI) (K-562 (Leukemia); K562, 48 h, read-out: TGI) was 3.79 µM, the CC50 (K-562 (Leukemia); K562, read-out: LC50) was over 100 µM and the GI50 (T-47D (Breast cancer)) was 1.73 µM. For the same compound, the IC (TGI) (T-47D (Breast cancer); 48 h, read-out: TGI) was 3.71 µM, the CC50 (T-47D (Breast cancer); read-out: LC50) was 7.96 µM and the GI50 ([1]; NCI-H522) was 1.65 µM. It also gave an IC (TGI) ([1]; NCI-H522, 48 h, read-out: TGI) of 3.42 µM, a GI50 (786-0 (Renal cancer); 786-0) of 1.62 µM and an IC (TGI) (786-0 (Renal cancer); 786-0, 48 h, read-out: TGI) of 3.16 µM. The CC50 (786-0 (Renal cancer); 786-0, read-out: LC50) was 6.19 µM, the GI50 (UACC-62 (Melanoma); UACC-62) was 1.82 µM and the IC (TGI) (UACC-62 (Melanoma); UACC-62, 48 h, read-out: TGI) was 3.25 µM. For the same compound, the CC50 (UACC-62 (Melanoma); UACC-62, read-out: LC50) was 5.8 µM, the GI50 (PC-3 (Prostate cancer); PC-3) was 2.94 µM and the IC (TGI) (PC-3 (Prostate cancer); PC-3, 48 h, read-out: TGI) was 2.94 µM. For the same compound, the CC50 (PC-3 (Prostate cancer); PC-3, read-out: LC50) was 5.74 µM, the EC50 [2] was 2.39 ± 0.2 µM and the EC50 [3] was 2.52 ± 0.2 µM. It also gave an EC50 [4] of 1.63 ± 0.3 µM, an EC50 [5] of 2.32 ± 0.3 µM and a GI50 (KM12 (Colon cancer); KM12) of 1.73 µM. The IC (TGI) (KM12 (Colon cancer); KM12, 48 h, read-out: TGI) was 3.24 µM, the CC50 (KM12 (Colon cancer); KM12, read-out: LC50) was 6.09 µM and the IC (TGI) (Renal Cancer subpanel; 48 h, read-out: TGI MG_MID) was 3.43 µM. The GI50 (Renal Cancer subpanel; read-out: GI50 MG_MID) was 1.71 µM, the CC50 (Renal Cancer subpanel; read-out: LC50 MG_MID) was 9.33 µM and the GI50 (CAKI-1 (Renal cancer); CAKI-1) was 1.55 µM. It also gave an IC (TGI) (CAKI-1 (Renal cancer); CAKI-1, 48 h, read-out: TGI) of 2.89 µM, a CC50 (CAKI-1 (Renal cancer); CAKI-1, read-out: LC50) of 5.4 µM and a GI50 (RXF 393 (Renal cancer); RXF 393) of 1.68 µM. The IC (TGI) (RXF 393 (Renal cancer); RXF 393, 48 h, read-out: TGI) was 3.18 µM, the CC50 (RXF 393 (Renal cancer); RXF 393, read-out: LC50) was 6.04 µM and the IC (TGI) (Prostate cancer subpanel; 48 h, read-out: TGI MG_MID) was 2.98 µM. It also gave a GI50 (Prostate cancer subpanel; read-out: GI50 MG_MID) of 2.98 µM, a CC50 (Prostate cancer subpanel; read-out: LC50 MG_MID) of 5.66 µM and a GI50 (UO-31 (Renal cancer); UO-31) of 1.56 µM. The IC (TGI) (UO-31 (Renal cancer); UO-31, 48 h, read-out: TGI) was 2.99 µM, the CC50 (UO-31 (Renal cancer); UO-31, read-out: LC50) was 5.74 µM and the GI50 ([6]; A549) was 1.73 µM. For the same compound, the IC (TGI) ([6]; A549, 48 h, read-out: TGI) was 3.24 µM, the CC50 ([6]; A549, read-out: LC50) was 6.08 µM and the GI50 (CCRF-CEM (Leukemia)) was 2.07 µM. The IC (TGI) (CCRF-CEM (Leukemia); 48 h, read-out: TGI) was 4.91 µM and the CC50 (CCRF-CEM (Leukemia); read-out: LC50) was over 100 µM.

From PMC7914897, “Cytotoxic Potential of a-Azepano- and 3-Amino-3,4-SeCo-Triterpenoids” (International Journal of Molecular Sciences, 2021)
